Measurements from PubChem BioAssay (NCI).
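GI50 marks 50% less growth. TGI is the concentration that stops growth completely.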

Key:
Assay in all cases: growth of human tumour cells (NCI), 384-well format
786-0 renal = tested on: 786-0 renal
A498 renal = tested on: A498 renal
A549 NSCLC = tested on: A549 NSCLC
ACHN renal = tested on: ACHN renal
BT-549 breast = tested on: BT-549 breast
CAKI-1 renal = tested on: CAKI-1 renal
CCRF-CEM leukemia = tested on: CCRF-CEM leukemia
COLO 205 colon = tested on: COLO 205 colon
DU-145 prostate = tested on: DU-145 prostate
EKVX NSCLC = tested on: EKVX NSCLC
HCC-2998 colon = tested on: HCC-2998 colon
HCT-116 colon = tested on: HCT-116 colon
HCT-15 colon = tested on: HCT-15 colon
HL-60(TB) leukemia = tested on: HL-60(TB) leukemia
HOP-62 NSCLC = tested on: HOP-62 NSCLC
HOP-92 NSCLC = tested on: HOP-92 NSCLC
HS 578T breast = tested on: HS 578T breast
HT29 colon = tested on: HT29 colon
IGROV1 ovarian = tested on: IGROV1 ovarian
K-562 leukemia = tested on: K-562 leukemia
KM12 colon = tested on: KM12 colon
LOX IMVI melanoma = tested on: LOX IMVI melanoma
M14 melanoma = tested on: M14 melanoma
MALME-3M melanoma = tested on: MALME-3M melanoma
MCF7 breast = tested on: MCF7 breast
MDA-MB-231 breast = tested on: MDA-MB-231 breast
MDA-MB-435 melanoma = tested on: MDA-MB-435 melanoma
MDA-MB-468 breast = tested on: MDA-MB-468 breast
MOLT-4 leukemia = tested on: MOLT-4 leukemia
NCI-H226 lung = tested on: NCI-H226 lung
NCI-H23 lung = tested on: NCI-H23 lung
NCI-H322M lung = tested on: NCI-H322M lung
NCI-H460 NSCLC = tested on: NCI-H460 NSCLC
NCI-H522 lung = tested on: NCI-H522 lung
NCI/ADR-RES ovarian = tested on: NCI/ADR-RES ovarian
OVCAR-3 ovarian = tested on: OVCAR-3 ovarian
OVCAR-4 ovarian = tested on: OVCAR-4 ovarian
OVCAR-5 ovarian = tested on: OVCAR-5 ovarian
OVCAR-8 ovarian = tested on: OVCAR-8 ovarian
PC-3 prostate = tested on: PC-3 prostate
RPMI-8226 leukemia = tested on: RPMI-8226 leukemia
RXF 393 renal = tested on: RXF 393 renal
SF-268 CNS = tested on: SF-268 CNS
SF-295 CNS = tested on: SF-295 CNS
SF-539 CNS = tested on: SF-539 CNS
SK-MEL-28 melanoma = tested on: SK-MEL-28 melanoma
SK-MEL-5 melanoma = tested on: SK-MEL-5 melanoma
SK-OV-3 ovarian = tested on: SK-OV-3 ovarian
SN12C renal = tested on: SN12C renal
SNB-19 CNS = tested on: SNB-19 CNS
SNB-75 CNS = tested on: SNB-75 CNS
SW-620 colon = tested on: SW-620 colon
T-47D breast = tested on: T-47D breast
TK-10 renal = tested on: TK-10 renal
U251 glioblastoma = tested on: U251 glioblastoma
UACC-257 melanoma = tested on: UACC-257 melanoma
UACC-62 melanoma = tested on: UACC-62 melanoma
UO-31 renal = tested on: UO-31 renal

Compound: C[C@@H](NC(=O)c1ncnc(N)c1Cl)c1ncc(C(=O)Nc2cc(C(F)(F)F)c(Cl)cn2)s1
- GI50 ([…]-0 renal): 16.8 µM
- TGI (786-0 renal): 32.9 µM
- GI50 (A498 renal): 16.1 µM
- TGI (A498 renal): 39.7 µM
- GI50 (A549 NSCLC): 10.3 µM
- TGI (A549 NSCLC): 27.8 µM
- GI50 (ACHN renal): 13.7 µM
- TGI (ACHN renal): 37.8 µM
- GI50 (BT-549 breast): 16.2 µM
- TGI (BT-549 breast): 30.8 µM
- GI50 (CAKI-1 renal): 11.6 µM
- TGI (CAKI-1 renal): 26.5 µM
- GI50 (CCRF-CEM leukemia): 12.8 µM
- TGI (CCRF-CEM leukemia): 25.5 µM
- GI50 (COLO 205 colon): 0.441 µM
- TGI (COLO 205 colon): 12.2 µM
- GI50 (DU-145 prostate): 18 µM
- TGI (DU-145 prostate): 35.2 µM
- GI50 (EKVX NSCLC): 14.8 µM
- TGI (EKVX NSCLC): 29.1 µM
- GI50 (HCC-2998 colon): 4.74 µM
- TGI (HCC-2998 colon): 18.5 µM
- GI50 (HCT-116 colon): 2.24 µM
- TGI (HCT-116 colon): 13.6 µM
- GI50 (HCT-15 colon): 11.2 µM
- TGI (HCT-15 colon): 25.6 µM
- GI50 (HL-60(TB) leukemia): 0.717 µM
- TGI (HL-60(TB) leukemia): 10.8 µM
- GI50 (HOP-62 NSCLC): 12 µM
- TGI (HOP-62 NSCLC): 24.8 µM
- GI50 (HOP-92 NSCLC): 4.23 µM
- TGI (HOP-92 NSCLC): 14.9 µM
- GI50 (HS 578T breast): 15 µM
- TGI (HS 578T breast): 28.4 µM
- GI50 (HT29 colon): 0.555 µM
- TGI (HT29 colon): 15.4 µM
- GI50 (IGROV1 ovarian): 5.42 µM
- TGI (IGROV1 ovarian): 20.8 µM
- GI50 (K-562 leukemia): 0.281 µM
- TGI (K-562 leukemia): 1.2 µM
- GI50 (KM12 colon): 13.1 µM
- TGI (KM12 colon): 31.3 µM
- GI50 (LOX IMVI melanoma): 1.42 µM
- TGI (LOX IMVI melanoma): 13.7 µM
- GI50 (M14 melanoma): 0.157 µM
- TGI (M14 melanoma): 1.16 µM
- GI50 (MALME-3M melanoma): 0.0475 µM
- TGI (MALME-3M melanoma): 0.289 µM
- GI50 (MCF7 breast): 14.5 µM
- TGI (MCF7 breast): 28.7 µM
- GI50 (MDA-MB-231 breast): 2.11 µM
- TGI (MDA-MB-231 breast): 20.3 µM
- GI50 (MDA-MB-435 melanoma): 1.37 µM
- TGI (MDA-MB-435 melanoma): 15.9 µM
- GI50 (MDA-MB-468 breast): 22 µM
- TGI (MDA-MB-468 breast): 39 µM
- GI50 (MOLT-4 leukemia): 11.1 µM
- TGI (MOLT-4 leukemia): 23.2 µM
- GI50 (NCI-H226 lung): 15.8 µM
- TGI (NCI-H226 lung): 40.4 µM
- GI50 (NCI-H23 lung): 1.88 µM
- TGI (NCI-H23 lung): 8.75 µM
- GI50 (NCI-H322M lung): 13 µM
- TGI (NCI-H322M lung): 28.1 µM
- GI50 (NCI-H460 NSCLC): 9.03 µM
- TGI (NCI-H460 NSCLC): 21.7 µM
- GI50 (NCI-H522 lung): 13.7 µM
- TGI (NCI-H522 lung): 26.6 µM
- GI50 (NCI/ADR-RES ovarian): 16.9 µM
- TGI (NCI/ADR-RES ovarian): 32 µM
- GI50 (OVCAR-3 ovarian): 16.2 µM
- TGI (OVCAR-3 ovarian): 34.1 µM
- GI50 (OVCAR-4 ovarian): 20.6 µM
- TGI (OVCAR-4 ovarian): 38 µM
- GI50 (OVCAR-5 ovarian): 5.67 µM
- TGI (OVCAR-5 ovarian): 29.6 µM
- GI50 (OVCAR-8 ovarian): 14.4 µM
- TGI (OVCAR-8 ovarian): 27.7 µM
- GI50 (PC-3 prostate): 20.4 µM
- TGI (PC-3 prostate): 35 µM
- GI50 (RPMI-8226 leukemia): 13.9 µM
- TGI (RPMI-8226 leukemia): 27.1 µM
- GI50 (RXF 393 renal): 18.7 µM
- TGI (RXF 393 renal): 40 µM
- GI50 (SF-268 CNS): 12.3 µM
- TGI (SF-268 CNS): 24.9 µM
- GI50 (SF-295 CNS): 17.7 µM
- TGI (SF-295 CNS): 32.8 µM
- GI50 (SF-539 CNS): 17.4 µM
- TGI (SF-539 CNS): 35.9 µM
- GI50 (SK-MEL-28 melanoma): 0.419 µM
- TGI (SK-MEL-28 melanoma): 2.67 µM
- GI50 (SK-MEL-5 melanoma): 1.35 µM
- TGI (SK-MEL-5 melanoma): 15.2 µM
- GI50 (SK-OV-3 ovarian): 20.5 µM
- TGI (SK-OV-3 ovarian): 42.6 µM
- GI50 (SN12C renal): 15.3 µM
- TGI (SN12C renal): 40.6 µM
- GI50 (SNB-19 CNS): 29.4 µM
- TGI (SNB-19 CNS): 91.4 µM
- GI50 (SNB-75 CNS): 23.7 µM
- TGI (SNB-75 CNS): 48.1 µM
- GI50 (SW-620 colon): 10.8 µM
- TGI (SW-620 colon): 26.6 µM
- GI50 (T-47D breast): 10.2 µM
- TGI (T-47D breast): 22.7 µM
- GI50 (TK-10 renal): 18.8 µM
- TGI (TK-10 renal): 36.4 µM
- GI50 (U251 glioblastoma): 18 µM
- TGI (U251 glioblastoma): 39.1 µM
- GI50 (UACC-257 melanoma): 0.406 µM
- TGI (UACC-257 melanoma): 2.48 µM
- GI50 (UACC-62 melanoma): 0.154 µM
- TGI (UACC-62 melanoma): 1.41 µM
- GI50 (UO-31 renal): 11.5 µM
- TGI (UO-31 renal): 32.5 µM
